{"source": "patent US8119589B2", "about": "“Modulation of CD4+ T cell responses by a tick saliva protein, Salp15 and polypeptides derived therefrom” (University of North Carolina at Charlotte, priority 2004, dated 2012)", "key": {"[1]": {"system": "fusion of HL2/3 cells expressing HIV envelope proteins with HeLa-CD4 cells", "assay": "gp120-CD4-mediated cell fusion by luciferase assay (HeLa-CD4 + HL2/3 cells)", "format": "cell-based", "conditions": "10 and 50 ug/ml Salp15; 48 hours", "procedure": "106 HeLa-CD4 cells, clone 1022 (NIH AIDS Research & Reference Reagent Program, Germantown, Md., U.S.A.) were plated in a 6-well plate and transfected with the plasmid Blue 3′ LTR-luciferase (NIH AIDS Research & Reference Reagent Program) using the lipofectamin method (Invitrogen).\nAfter 24 hours, the cells were trypsinized and mixed with HL2/3 cells that express HIV envelope proteins (NIH AIDS Research & Reference Reagent Program), encoding Gag, Nef, Rev, Tat and Env proteins from HIV (0.2×106 HeLa-CD4+0.2×106 HL2/3) in a 24-well plate at a final volume of 500 uL. The cells were incubated in the presence of 10 and 50 ug/ml of Salp15. The positive control was anti-CD4 Ab and the negative control was anti-CD3.\nThe cells were harvested after 48 hours, washed with PBS and lysed with 100 uL of Passive Lysis buffer (Promega) per well, for 15 min at RT. The lysates were transferred to Eppendorf tubes, spun at 10,000×g and assessed for Luciferase activity and protein content by the Bradford assay (BioRad). Luciferase activity is an indicator of cell fusion mediated by the interaction of HIV envelope proteins on HL2/3 cells and CD4 on HeLa-CD4 cells."}, "[2]": {"system": "CD4+ T cells", "assay": "INFγ-mediated STAT1 phosphorylation in CD4+ T cells", "format": "cell-based, mouse", "conditions": "20 ng/mL INFγ; Salp15 50 μg/mL", "procedure": "For tyrosine phosphorylation western analysis, cells were lysed in 60 mM Tris (pH 7.4) containing 150 mM NaCl, 5 mM EDTA, 1 mM EGTA, 1 mM β-glycerol phosphate, 2.5 mM sodium pyrophosphate, 25 mM NaF, 2 mM sodium orthovanadate, 1% Triton-X 100, 0.25% sodium deoxycholate, 1 mM PMSF and protease inhibitors for 15 min on ice, sonicated 4×5 sec and incubated at 37° C. for 10 min. The lysate was cleared by centrifugation and boiled in SDS-sample buffer. The samples were subjected to SDS-PAGE, transferred to a nitrocellulose membrane and immunoblotted with anti-pTyr, anti-pPLCγ1 and anti-Vav1, anti-pSrc family (Tyr^416) to measure p-Lck^394 (Alonso et al., 2004), anti-Lck, anti-pZap70 (Tyr^319), anti-Zap70, p44/42 and p44/42 (phopho-Tyr^204/Thr^202). Vav1 was immunoprecipitated using anti-Vav1 and protein A-agarose beads overnight, subjected to SDS-PAGE followed by immunoblotting with anti-pTyr or anti-Vav1. To examine the effect of Salp15 on T cell stimulation with INFγ, CD4^+ T cells were preincubated with Salp15 at 50 μg/mL followed by activation with 20 ng/mL of mouse recombinant INFγ (R & D Systems, Minneapolis, Minn., U.S.A.) for 30 min at 37° C. The cells were lysed as above and subjected to SDS-PAGE and immunoblotting with anti-pSTAT1 and anti-STAT1."}, "[3]": {"system": "CD4+ T cells", "assay": "Lipid raft redistribution (CTB594 staining, receptor capping) in activated CD4+ T cells", "format": "cell-based, mouse", "conditions": "Salp15 treatment prior to anti-CD3/CD28 stimulation, murine cells", "procedure": "(§1) Naïve CD4+ T cells from C3H/HeN, Balb/c, and B10.BR mice were purified as previously described (Anguita et al., 2002). CD4+ T cells were preincubated in Click's modified Bruff's Medium (Sigma Chemical Co., St. Louis, Mo., U.S.A.) for 10 minutes at 37° C. with and without Salp15 (50 μg/mL) and stimulated for 20 min or the indicated times at 37° C. with 10 μg/mL of anti-CD3ε, 1 μg/mL of anti-CD28, and 10 μg/mL of anti-armenian and syrian hamster IgG (BD Biosciences Pharmingen, San Jose, Calif., U.S.A.). Jurkat (E6-1) cells were stimulated using 5 μg/mL of OKT3 mAb (eBioscience, San Diego, Calif., U.S.A.) and 1 μg/mL of anti-human CD28 cross linked with 5 μg/mL anti-mouse IgG for the indicated times.\n(§2) For the visualization of lipid rafts, phospho-tyrosine, and cytoskeleton reorganization, CD4^+, CD8^+ or Jurkat cells were cytospun for 10 minutes at 1000 RPM onto positively charged microslides (Fisher Scientific, Hampton, N.H., U.S.A.). The cells were fixed with 3.7% paraformaldehyde (Sigma Chemical Co.) for 15 minutes and stained with CTB594 (Molecular Probes, Eugene, Oreg., U.S.A.), AlexaFluor488 labeled phalloidin (Molecular Probes) or (1:50) biotin-conjugated anti-p-Tyr (PY99) followed by Streptavidin-AlexaFluor594 (1:100, Molecular Probes). For p-LAT and p-PLCγ1 staining, fixed cells were treated with PBS containing 0.1% Triton-X 100 and 100 mM glycine for 15 min at room temperature and stained using rabbit p-LAT (Tyr^191) or rabbit anti-p-PLCγ1 (Tyr^783) probed with anti-rabbit IgG488 (Molecular Probes).\nFor receptor capping studies, mouse primary B and CD11^+ cells were purified by positive selection using biotin anti-mouse CD45R/B220 clone RA3-6B2 and biotin anti-mouse CD11b clone M1/70 (BD Biosciences Pharmingen) respectively, followed by incubation with magnetic microbeads. The cells were analyzed for receptor capping using 25 μg/mL anti-mouse IgM and 25 μg/mL anti-mouse CD16/CD32 respectively, cross-linked with 25 μg/mL of anti-rat IgG594 for 10 min in the presence or absence of 50 μg/mL of Salp15. […]"}, "[4]": {"target": "T1, HIV gp120 binding to CD4 (Homo sapiens, UniProt P01730)", "T1 construct": "coated with 0.05 uM sCD4 (D1-D2 domains)", "assay": "gp120-HRP binding to plate-coated sCD4 (D1-D2)", "conditions": "0.05, 0.5 and 5 uM Salp15", "procedure": "Ninety-six (96) well plates were coated with 0.05 uM sCD4 (D1-D2 domains) in coating buffer (pH 9.6). The plates were washed 2× and blocked with 200 uL of PBS+10% FCS. Samples were then added containing gp120-HRP plus 0, 0.05, 0.5 and 5 uM Salp15 in PBS+10% FCS. KLH was used as negative control at 5 uM. The plates were incubated for 2 hours at room temperature and washed 4×, followed by incubation with horseradish peroxidase substrate and stop solution from KPL."}, "[5]": {"system": "Jurkat cells", "assay": "Lipid raft redistribution (CTB594 staining) in activated Jurkat cells", "format": "cell-based, human", "conditions": "Salp15 treatment prior to anti-CD3/CD28 stimulation", "procedure": "as §1\nas §2, with “For p-LAT and p-PLCγ1 staining, fixed cells were treated with PBS containing 0.1% Triton-X 100 and 100 mM glycine for 15 min at room temperature and stained using rabbit p-LAT (Tyr^191) or rabbit anti-p-PLCγ1 (Tyr^783) probed with anti-rabbit IgG488 (Molecular Probes).” left out"}}, "data": [{"substance": "Salp15: secreted salivary protein from Ixodes scapularis, SEQ ID NO: 2; recombinant His-tagged, produced in Drosophila S2 cells", "values": [{"measurement": "Reduction in cell fusion (luciferase activity)", "setting": "[1]", "result": "concentration dependent reduction"}, {"measurement": "INFγ-mediated phosphorylation of STAT1", "setting": "[2]", "result": "unaffected"}, {"measurement": "Lipid raft clustering", "setting": "[3]", "result": "reduced"}, {"measurement": "Inhibition of gp120 binding to CD4", "setting": "[4]", "result": "concentration dependent inhibition"}, {"measurement": "Lipid raft clustering", "setting": "[5]", "result": "reduced"}]}]}
